One data set can be described thus: Hemolysis rate. Particulars: erythrocytes (red blood cells). Type of data set: cell-based.
Data set [1] has as its system P. falciparum 3D7. Kind of data set: 72-h compound exposure assay with wash-unwashed procedure (up to 144 h). Type of data set: cell-based, Plasmodium falciparum. Particulars: for Parasitemia levels at 48 and 72 h compared to untreated controls: compound at IC80; for Cidal versus static effect: compound at IC80, up to 144 h, washed and unwashed groups. How it is done: In the 72-h compound exposure assay with the compound wash-unwashed procedure, parasites at the ring stage with 0.5% parasitemia and 2% hematocrit were employed. For this evaluation, Compounds 31 and 32 were used at concentrations equivalent to their respective IC80 values (Compound 31: 18.08 μM; hill slope 2.10, Compound 32: 11.74 μM; hill slope 2.02). These groups were considered the treated groups, while cultures with only complete medium served as untreated groups. The IC80 was used to allow observations of parasite morphology under incomplete inhibition, the potential emergence of abnormal morphologies, and the state of parasites following compound removal. This experimental setup was repeated three times for each concentration and time point. Thin blood smears were prepared from each treatment group at 1, 24, 48, or 72 h post incubation. In different culture sets, after 72 h of incubation, the medium was exchanged, and the compounds were subjected to three washes using fresh complete medium. Incubation was then continued either in the presence (unwashed group) or absence (washed group) of the test compounds for up to 144 h. Thin blood smears were consecutively prepared from each treatment group at 96, 120, and 144 h. The smears were visualized using a BZ-900 all-in-one microscope (Keyence BioRevo, Tokyo, Japan). Parasitemia levels were calculated by counting the number and determining the ratio of infected erythrocytes relative to the number of uninfected erythrocytes.

Data set [2] relates to P. falciparum 3D7. Kind of data set: IC50 speed assay (24, 48, 72 h). Particulars: P. falciparum 3D7; for Speed of action (IC50 speed assay): IC50 at 24, 48, 72 h compared; for IC50: Plasmodium falciparum. Type of data set: cell-based, Plasmodium falciparum. As for the experimental part: The D-sorbitol method (CAS: 50-70-4, Wako, Osaka, Japan) was employed to synchronize parasites, resulting in the attainment of ≥90% ring-stage parasites. These synchronized parasites were then utilized for the experiments within a 2-h window. The assay was performed as follows. First, 50 μL of synchronized parasites with 0.5% parasitemia and 2% hematocrit were added to individual wells of a 96-well plate. Then, 50 μL of the test compounds was introduced to each well. […] Wells containing only test compounds and erythrocytes were included for background correction. […] After the designated incubation time, 100 μL of lysis buffer containing 0.02% (v/v) SYBR Green I was added to each well, the contents of the well were mixed by pipetting, and the plate was incubated in the dark at room temperature for 2 h. […] This assay was repeated four times at each concentration, and the resulting inhibitory values represent the average from three independent trials.

The mark [3] stands for this setting: 24 h incubation, read-out: IC50 24 h.
Setting [4] is: 48 h incubation, read-out: IC50 48 h.
Where [5] appears, read: 72 h incubation, read-out: IC50 72 h.

SMILES strings stand for the structures. Like-named read-outs stand apart in the source and are kept apart here. A value given as a limit tells only on which side of the number the result lay.

As for `COc1cccc(-c2ncc(-c3ccccc3O)o2)c1OC` [Compound 31, 2-(2′,3′-dimethoxyphenyl)-5-(2″-hydroxyphenyl)oxazole], the hemolysis at 1000 µM in the data set “Hemolysis rate” was less than 3%. The “Parasitemia levels at 48 and 72 h compared to untreated controls” value in the data set on P. falciparum 3D7 [1] is given as “significantly lower parasitemia levels”. The “Cidal versus static effect” value in the data set with P. falciparum 3D7 [1] is given as “possible cidal effect”. The “Speed of action (IC50 speed assay)” value in the data set on P. falciparum 3D7 [2] is listed as “slow-acting”. Also, the half-maximal inhibitory concentration (IC50) in the data set on P. falciparum 3D7 [2] (setting [3]) turned out to be 45.2 ± 10.6 µM; with P. falciparum 3D7 [2] (setting [4]), 18.8 ± 1.86 µM; in the data set on P. falciparum 3D7 [2] (setting [5]), 8.37 ± 1.28 µM.
Turning to `COc1cccc(-c2ncc(-c3ccccc3OCc3ccccc3)o2)c1OC` [Compound 32, 2-(2′,3′-dimethoxyphenyl)-5-(2″-benzyloxyphenyl)oxazole], the hemolysis at 1000 µM in “Hemolysis rate” was less than 3%. Also, in the data set on P. falciparum 3D7 [1], the “Parasitemia levels at 48 and 72 h compared to untreated controls” value is listed as “significantly lower parasitemia levels”. Also, the “Cidal versus static effect” value in the data set with P. falciparum 3D7 [1] was “predominantly static effect”. Besides, in the data set with P. falciparum 3D7 [2], the “Speed of action (IC50 speed assay)” value is “slow-acting”. Further, the IC50 with P. falciparum 3D7 [2] (setting [3]) stood at 31.2 ± 4.13 µM; in the data set on P. falciparum 3D7 [2] (setting [4]) it was 33.4 ± 2.67 µM; in the data set with P. falciparum 3D7 [2] (setting [5]), 6.25 ± 1.39 µM.

One may read the IC50 as the concentration needed to halve the response being measured.

The values above are taken from publication PMC11067372, “Evaluation of the antiplasmodial efficacy of synthetic 2,5-diphenyloxazole analogs of compounds naturally derived from Oxytropis lanata” (International Journal for Parasitology: Drugs and Drug …, 2024).
